From EP1561465A2, “Methods of use of fluoroquinolone compounds against bacteria” (LG Life Sciences, Ltd., priority 1999, dated 2001)
≈ marks a conversion by molar mass, not a printed value.

How the values were obtained:
Type in all cases: cell-based
Staphylococcus aureus = test: MIC by NCCLS reference broth microdilution, 450 respiratory tract pathogens; settings: β-lactamase positive and erythromycin resistant (n = 10)
Streptococcus pneumoniae [1] = test: MIC by E-test (broth microdilution for gemifloxacin), 107 pneumococcal carrier isolates, Athens 1998; settings: for MIC Range: in µg/mL (unit assumed); for MIC50 / MIC90: Streptococcus pneumoniae; for MIC90: read-out: MIC90
Protocol: Susceptibility testing was performed by agar dilution or epsilometer method (E-test), as recommended by the NCCLS. […] The susceptibility profiles of the strains were assessed using the Epsilometer method (E-test). The isolates were subdivided into two groups according to their penicillin susceptibility patterns (penicillin-susceptible and penicillin-intermediate.

Streptococcus pneumoniae [2] = test: MIC by NCCLS broth microdilution, 1100 Japanese clinical isolates 1997-1998; settings: for MIC: Streptococcus pneumoniae quinolone resistant
Enterococcus faecium = test: MIC by agar macrodilution (NCCLS), 373 Gram positive isolates, Athens 1998
Moraxella catarrhalis = test: MIC by agar dilution (NCCLS), 411 isolates Buenos Aires 1998-99; settings: Moraxella catarrhalis (n = 59)
[3] = tested on: Gram positive anaerobic and facultative anaerobic pathogens; test: microbe, parasite or virus in culture
Enterobacter spp. = test: MIC by agar dilution (NCCLS), 322 nosocomial Gram negative isolates, Athens 1998; settings: n = 57 isolates
[4] = Penicillin-intermediate S. pneumoniae (n = 24), E-test
[5] = Penicillin-susceptible S. pneumoniae (n = 107), E-test
[6] = Streptococcus pneumoniae erythromycin resistant (n=34)
[7] = Streptococcus pneumoniae erythromycin susceptible (n=11)

## N[C@@H]1[C@H]2CN(c3nc4c(cc3F)c(=O)c(C(=O)O)cn4-c3ccc(F)cc3F)C[C@@H]12 [Trovafloxacin, trovafloxacin]
Staphylococcus aureus
  MIC90: 0.25 µg/mL (≈ 0.6 µM)
Streptococcus pneumoniae [1]; [4]
  MIC Range: 0.003-1
  MIC90: 0.38 µg/mL (≈ 0.913 µM)
Streptococcus pneumoniae [1]; [5]
  MIC Range: 0.008-1
  MIC90: 0.19 µg/mL (≈ 0.456 µM)
Streptococcus pneumoniae [1]
  MIC50: 0.125 µg/mL (≈ 0.3 µM)
Streptococcus pneumoniae [1]; Penicillin-susceptible S. pneumoniae (n = 107), E-test, read-out: MIC50
  MIC50: 0.094 µg/mL (≈ 0.226 µM)
Streptococcus pneumoniae [2]; Streptococcus pneumoniae
  MIC50: 0.125 µg/mL (≈ 0.3 µM)
  MIC90: 0.125 µg/mL (≈ 0.3 µM)
Streptococcus pneumoniae [2]; Streptococcus pneumoniae amoxicillin resistant (n=40)
  MIC Range: 0.063 to 1 µg/mL
Streptococcus pneumoniae [2]; Streptococcus pneumoniae amoxicillin susceptible (n=35)
  MIC Range: 0.063 to 1 µg/mL
Streptococcus pneumoniae [2]; [6]
  MIC90: 0.125 µg/mL (≈ 0.3 µM)
  MIC Range: 0.063 to 1 µg/mL
Streptococcus pneumoniae [2]; [7]
  MIC90: 0.125 µg/mL (≈ 0.3 µM)
  MIC Range: 0.063 to 0.125 µg/mL
Streptococcus pneumoniae [2]; Streptococcus pneumoniae, Streptococcus pneumoniae amoxicillin resistant (n=40), read-out: MIC50
  MIC50: 0.063 µg/mL (≈ 0.151 µM)
Streptococcus pneumoniae [2]; Streptococcus pneumoniae, Streptococcus pneumoniae amoxicillin susceptible (n=35), read-out: MIC50
  MIC50: 0.063 µg/mL (≈ 0.151 µM)
Streptococcus pneumoniae [2]; Streptococcus pneumoniae, Streptococcus pneumoniae amoxicillin susceptible (n=35), read-out: MIC90
  MIC90: 0.25 µg/mL (≈ 0.6 µM)
Streptococcus pneumoniae [2]; Streptococcus pneumoniae, Streptococcus pneumoniae erythromycin resistant (n=34), read-out: MIC50
  MIC50: 0.063 µg/mL (≈ 0.151 µM)
Streptococcus pneumoniae [2]; Streptococcus pneumoniae, strain TMS1
  MIC: 0.25 µg/mL (≈ 0.6 µM)
Streptococcus pneumoniae [2]; Streptococcus pneumoniae, strain TMS2
  MIC: 1 µg/mL (≈ 2.4 µM)
Enterococcus faecium
  MIC distribution (µg/ml) 0.03: 0
  MIC distribution (µg/ml) 0.06: 0
  MIC distribution (µg/ml) 0.125: 0
  MIC distribution (µg/ml) 0.25: 1
  MIC distribution (µg/ml) 0.5: 6
  MIC distribution (µg/ml) 1: 2
  MIC distribution (µg/ml) 2: 0
  MIC distribution (µg/ml) 4: 0
  MIC distribution (µg/ml) 8: 1
  MIC distribution (µg/ml) 16: 0
  MIC distribution (µg/ml) ≤0.015: 0
  MIC distribution (µg/ml) ≥32: 4
Enterococcus faecium; Enterococcus faecium, n = 14 isolates, read-out: MIC50
  MIC50: 0.5 µg/mL (≈ 1.2 µM)
Enterococcus faecium; Enterococcus faecium, n = 14 isolates, read-out: MIC90
  MIC90: ≥ 32 µg/mL
Moraxella catarrhalis
  MIC Range: ≤0.004 to 0.03 µg/mL
Moraxella catarrhalis; read-out: MIC90
  MIC90: 0.016 µg/mL (≈ 0.0384 µM)
[3]; Bifidobacterium adolescentis, ATCC15703
  MIC: 1 µg/mL (≈ 2.4 µM)
[3]; Bifidobacterium bifidum, JCM1255
  MIC: 4 µg/mL (≈ 9.61 µM)
[3]; Bifidobacterium breve, ATCC15700
  MIC: 4 µg/mL (≈ 9.61 µM)
[3]; Bifidobacterium longum, ATCC15707
  MIC: 4 µg/mL (≈ 9.61 µM)
[3]; Bifidobacterium pseudolongum, ATCC25526
  MIC: 4 µg/mL (≈ 9.61 µM)
[3]; Clostridioides difficile
  MIC: 1 µg/mL (≈ 2.4 µM)
[3]; Clostridium perfringens, ATCC13124
  MIC: 0.125 µg/mL (≈ 0.3 µM)
[3]; Clostridium septicum, ATCC12464
  MIC: 0.125 µg/mL (≈ 0.3 µM)
[3]; Cutibacterium acnes, ATCC11828
  MIC: 1 µg/mL (≈ 2.4 µM)
[3]; Eggerthella lenta, ATCC25559
  MIC: 0.5 µg/mL (≈ 1.2 µM)
[3]; Finegoldia magna, ATCC29328
  MIC: 0.125 µg/mL (≈ 0.3 µM)
[3]; Gemella morbillorum, ATCC27824
  MIC: 0.25 µg/mL (≈ 0.6 µM)
[3]; Lacticaseibacillus casei, JCM1134
  MIC: 0.06 µg/mL (≈ 0.144 µM)
[3]; Lactiplantibacillus plantarum, JCM1149
  MIC: 4 µg/mL (≈ 9.61 µM)
[3]; Lactobacillus acidophilus, JCM1132
  MIC: 4 µg/mL (≈ 9.61 µM)
[3]; Levilactobacillus brevis, JCM1059
  MIC: 1 µg/mL (≈ 2.4 µM)
[3]; Ligilactobacillus salivarius, JCM1231
  MIC: 0.125 µg/mL (≈ 0.3 µM)
[3]; Limosilactobacillus reuteri, JCM1112
  MIC: 1 µg/mL (≈ 2.4 µM)
[3]; Limosilactobacillus reuteri, JCM1173
  MIC: 1 µg/mL (≈ 2.4 µM)
[3]; Paraclostridium sordellii, ATCC9714
  MIC: 0.25 µg/mL (≈ 0.6 µM)
[3]; Parvimonas micra
  MIC: 0.06 µg/mL (≈ 0.144 µM)
[3]; Peptoniphilus asaccharolyticus
  MIC: 0.5 µg/mL (≈ 1.2 µM)
[3]; Peptoniphilus indolicus
  MIC: 0.125 µg/mL (≈ 0.3 µM)
[3]; Peptostreptococcus anaerobius, ATCC27337
  MIC: 0.06 µg/mL (≈ 0.144 µM)
[3]; Schaalia odontolytica
  MIC: 4 µg/mL (≈ 9.61 µM)
[3]; Staphylococcus saccharolyticus, ATCC14953
  MIC: 0.06 µg/mL (≈ 0.144 µM)
[3]; Streptococcus constellatus, ATCC27823
  MIC: 0.125 µg/mL (≈ 0.3 µM)
[3]; Streptococcus intermedius, ATCC27335
  MIC: 0.125 µg/mL (≈ 0.3 µM)
[3]; Thomasclavelia ramosa, ATCC25582
  MIC: 0.5 µg/mL (≈ 1.2 µM)
Enterobacter spp.; Enterobacter, read-out: MIC50
  MIC50: 0.125 µg/mL (≈ 0.3 µM)
Enterobacter spp.; Enterobacter, read-out: MIC90
  MIC90: 16 µg/mL (≈ 38.4 µM)
Enterobacter spp.
  MIC Range: ≤0.03 to 64 µg/mL
